IC50 data for three molecules are collected here from ChEMBL document CHEMBL1131747, “Derivation of a possible transition-state for the reaction catalysed by the enzyme estrone Sulfatase (ES)” (Bioorg Med Chem Lett, 1999).

Structures are written as SMILES.

For the test, the target named is T1, Steryl-sulfatase (Homo sapiens, UniProt P08842).
T1 sequence (P08842 whole entry): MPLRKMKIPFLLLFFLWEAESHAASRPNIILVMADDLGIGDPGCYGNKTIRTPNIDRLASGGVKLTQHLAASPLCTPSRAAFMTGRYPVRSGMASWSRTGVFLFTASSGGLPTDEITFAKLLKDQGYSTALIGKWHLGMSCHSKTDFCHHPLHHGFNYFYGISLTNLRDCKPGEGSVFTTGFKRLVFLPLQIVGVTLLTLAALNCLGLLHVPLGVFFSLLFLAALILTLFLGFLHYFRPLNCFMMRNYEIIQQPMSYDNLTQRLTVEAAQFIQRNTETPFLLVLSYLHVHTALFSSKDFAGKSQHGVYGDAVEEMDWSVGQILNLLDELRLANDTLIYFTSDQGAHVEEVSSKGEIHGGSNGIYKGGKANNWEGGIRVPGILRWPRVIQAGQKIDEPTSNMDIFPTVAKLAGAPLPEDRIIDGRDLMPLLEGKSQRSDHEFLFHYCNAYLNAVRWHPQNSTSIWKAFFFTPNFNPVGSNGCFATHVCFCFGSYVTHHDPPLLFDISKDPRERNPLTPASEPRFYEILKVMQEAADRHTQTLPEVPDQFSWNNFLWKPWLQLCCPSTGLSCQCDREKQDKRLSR
Put plainly: Inhibitory activity against estrone sulfatase enzyme.
As for `NS(=O)(=O)Oc1ccc2c(c1)CCCC2`, the IC50 (in general, the midpoint of a concentration-inhibition curve) stood at 1000 nM.

`CCCCCCCCCCCCCC(=O)NCCc1ccc(OS(N)(=O)=O)cc1` yielded an IC50 of 55.8 nM. Against the preceding molecule, the IC50 is about 18-fold lower.

As to `C[C@]12CC[C@@H]3c4ccc(OS(N)(=O)=O)cc4CCC3[C@@H]1CCC2=O` (single isomer, unassigned) [EMATE], inhibition was half-maximal at 0.065 nM (IC50).
